Data from the supplement of paper PMC10307832.

Key:
Assay in all cases: relative viability (nuclei count vs DMSO), 5 days (fraction); higher = more cells survive
Linsitinib + OSI-027 = compound: C[C@]1(O)C[C@@H](c2nc(-c3ccc4ccc(-c5ccccc5)nc4c3)c3c(N)nccn32)C1 [Linsitinib] + COc1cccc2cc(-c3nc([C@H]4CC[C@H](C(=O)O)CC4)n4ncnc(N)c34)[nH]c12 [OSI-027] (partner 0.5 µM)
In short: (§1)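 Lung cancer cell lines in 1536-well plates got either a single drug or a fixed anchor-drug dose together with five library-drug doses (not always all listed) in √10 steps, by pin tool, on the day after seeding. Nuclei were counted after 5 days, and relative viability is the treated-to-vehicle ratio of nuclei counts. Values are medians of duplicate plates.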

Ispinesib + Linsitinib = compound: Cc1ccc(C(=O)N(CCCN)[C@@H](c2nc3cc(Cl)ccc3c(=O)n2Cc2ccccc2)C(C)C)cc1 [Ispinesib] + C[C@]1(O)C[C@@H](c2nc(-c3ccc4ccc(-c5ccccc5)nc4c3)c3c(N)nccn32)C1 [Linsitinib] (partner 1 µM)
In short: as §1

Linsitinib + Tozasertib = compound: C[C@]1(O)C[C@@H](c2nc(-c3ccc4ccc(-c5ccccc5)nc4c3)c3c(N)nccn32)C1 [Linsitinib] + Cc1cc(Nc2cc(N3CCN(C)CC3)nc(Sc3ccc(NC(=O)C4CC4)cc3)n2)n[nH]1 [Tozasertib] (partner 0.1 µM)
In short: as §1

Ispinesib + Bortezomib = compound: Cc1ccc(C(=O)N(CCCN)[C@@H](c2nc3cc(Cl)ccc3c(=O)n2Cc2ccccc2)C(C)C)cc1 [Ispinesib] + CC(C)C[C@H](NC(=O)[C@H](Cc1ccccc1)NC(=O)c1cnccn1)B(O)O [Bortezomib] (partner 0.002 µM)
In short: as §1

Cell Line	relative viability (Linsitinib + OSI-027; first compound 0.01 µM)	relative viability (Linsitinib + OSI-027; first compound 0.03162 µM)	relative viability (Linsitinib + OSI-027; first compound 0.1 µM)	relative viability (Linsitinib + OSI-027; first compound 0.3162 µM)	relative viability (Linsitinib + OSI-027; first compound 1 µM)	relative viability (Ispinesib + Linsitinib; first compound 0.001 µM)	relative viability (Ispinesib + Linsitinib; first compound 0.003162 µM)	relative viability (Ispinesib + Linsitinib; first compound 0.01 µM)	relative viability (Ispinesib + Linsitinib; first compound 0.03162 µM)	relative viability (Ispinesib + Linsitinib; first compound 0.1 µM)	relative viability (Linsitinib + Tozasertib; first compound 0.01 µM)	relative viability (Linsitinib + Tozasertib; first compound 0.03162 µM)	relative viability (Linsitinib + Tozasertib; first compound 0.1 µM)	relative viability (Linsitinib + Tozasertib; first compound 0.3162 µM)	relative viability (Linsitinib + Tozasertib; first compound 1 µM)	relative viability (Ispinesib + Bortezomib; first compound 0.001 µM)	relative viability (Ispinesib + Bortezomib; first compound 0.003162 µM)	relative viability (Ispinesib + Bortezomib; first compound 0.01 µM)	relative viability (Ispinesib + Bortezomib; first compound 0.03162 µM)	relative viability (Ispinesib + Bortezomib; first compound 0.1 µM)
NCI-H2085	0.681	0.657	0.814	0.712	0.431	0.954	1.01	0.904	0.777	0.605	0.768	0.748	0.932	0.817	0.706	1.08	1.08	1.18	0.818	0.484
NCI-H2087	0.691	0.582	0.463	0.362	0.182	1.02	0.979	1.02	0.459	0.167	0.219	0.259	0.196	0.141	0.203	0.852	0.978	1.05	0.477	0.153
NCI-H2126	0.671	0.909	0.596	0.478	0.358	0.732	0.739	0.749	0.701	0.775	0.768	0.828	0.767	0.727	0.646	1.1	1.14	1.24	1.14	0.773
NCI-H2228	0.57	0.604	0.492	0.335	0.254	0.839	0.607	1	0.803	0.338	0.273	0.308	0.272	0.296	0.199	1.2	1.21	1.48	0.474	0.448
NCI-H2347	0.36	0.517	0.261	–	0.356	1.01	1.04	1.13	0.805	0.913	0.557	0.669	0.571	–	0.414	–	1	0.665	1.08	0.758
NCI-H2405	0.624	0.638	0.637	0.53	0.347	0.974	0.755	0.968	0.783	0.435	0.726	0.755	0.729	0.666	0.497	1.02	1.05	1.11	0.924	0.81
